In paper PMC12079475, “Identification, validation, and characterization of approved and investigational drugs interfering with the SARS‐CoV‐2 endoribonuclease Nsp15” (Protein Science : A Publication of the Protein Society, 2025):
Structures can show the parent of a compound that is named as a salt. Where two headings read alike, the source gives them in different places.

Assays:
SARS‐CoV‐2 Nsp15 [1] = biological target: T1, SARS‐CoV‐2 Nsp15 (Severe acute respiratory syndrome coronavirus 2, UniProt P0DTD1); assay: biochemical; assay type: biochemical; conditions: for inhibition at 10 µM: read-out: Inhibition % +L-Cys 10 µM; for loss of the inhibition potency in L‐cysteine buffer: 1 mM L‐cysteine buffer compared with DTT buffer
SARS‐CoV‐2 Nsp15 [2] = biological target: T1, SARS‐CoV‐2 Nsp15; assay: biochemical
[3] = 1 mM DTT buffer, confidence interval in brackets, read-out: IC50 + DTT (μM) (CI in μM)
[4] = DTT buffer (Table S1), read-out: IC50 +DTT
[5] = hit confirmation, 10 µM, DTT buffer
[6] = primary screen, 10 µM (Table S1)
[7] = primary screen, 10 μM compound, 1 mM DTT buffer, normalized to 50 μM Congo red (100%) and DMSO (0%)
[8] = hit confirmation, 10 µM, DTT buffer, read-out: HC inhibition % +DTT 10 µM
[9] = primary screen, 10 µM (Table S1), read-out: PS Inhibition % 10 µM
[10] = primary screen, 10 μM compound, 1 mM DTT buffer, normalized to 50 μM Congo red (100%) and DMSO (0%), read-out: PS inhibition % 10 μM (single point measurement)
[11] = 1 mM L-cysteine buffer, confidence interval in brackets, read-out: IC50 + L‐Cys (μM) (CI in μM)
[12] = L-cysteine buffer (Table S1), read-out: IC50 +L-Cys

SMILES	IC50 (SARS‐CoV‐2 Nsp15 [2]; [3])	IC50 (SARS‐CoV‐2 Nsp15 [2]; [4])	inhibition at 10 µM (SARS‐CoV‐2 Nsp15 [1]; 10 µM, L-cysteine buffer)	inhibition at 10 µM (SARS‐CoV‐2 Nsp15 [2]; [8])	inhibition at 10 µM (SARS‐CoV‐2 Nsp15 [2]; [9])	inhibition at 10 µM (SARS‐CoV‐2 Nsp15 [2]; [10])	IC50 (SARS‐CoV‐2 Nsp15 [1]; [11])	IC50 (SARS‐CoV‐2 Nsp15 [1]; [12])	other results
Cc1[nH]c2ccc(F)cc2c1-c1nc2c3cccnc3c3ncccc3c2[nH]1 [APTO‐253]	7.8 µM	7.75 µM	–	–	–	–	–	–	Inhibition % +L-Cys 10 µM (SARS‐CoV‐2 Nsp15 [1]; 10 µM, L-cysteine buffer): 48,13%; HC inhibition % +DTT 10 µM (SARS‐CoV‐2 Nsp15 [2]; [5]): 78,02%; PS Inhibition % 10 µM (SARS‐CoV‐2 Nsp15 [2]; [6]): 61,11%; PS inhibition % 10 μM (single point measurement) (SARS‐CoV‐2 Nsp15 [2]; [7]): 61.1%
CC(C)Nc1cccnc1N1CCN(C(=O)c2cc3cc(NS(C)(=O)=O)ccc3[nH]2)CC1 [Delavirdine (mesylate)]	2.3 µM	2.29 µM	27.2%	77.3%	80.7%	80.7%	–	–	loss of the inhibition potency in L‐cysteine buffer (SARS‐CoV‐2 Nsp15 [1]): more than 50%
COc1cccc2c1C(=O)c1c(O)c3c(c(O)c1C2=O)C[C@@](O)(C(=O)CO)C[C@@H]3O[C@H]1C[C@H](N)[C@H](O)[C@H](C)O1 [Doxorubicin]	–	–	–	–	–	–	–	–	IC50 (SARS‐CoV‐2 Nsp15 [1]; IC50 + L‐Cys (μM) (CI in μM)): 2.3 µM; IC50 (SARS‐CoV‐2 Nsp15 [1]; IC50 +L-Cys (µM)): 2.26 µM; IC50 (SARS‐CoV‐2 Nsp15 [2]; IC50 + DTT (μM) (CI in μM)): 3.7 µM; IC50 (SARS‐CoV‐2 Nsp15 [2]; IC50 +DTT (µM)): 3.69 µM
COc1cccc(C=NCCN=Cc2cccc(OC)c2[O-])c1[O-].[Cl-].[Mn+3] [EUK 134]	3.3 µM	3.34 µM	–	–	–	–	–	–	Inhibition % +L-Cys 10 µM (SARS‐CoV‐2 Nsp15 [1]; 10 µM, L-cysteine buffer): 16,41%; loss of the inhibition potency in L‐cysteine buffer (SARS‐CoV‐2 Nsp15 [1]): more than 50%; HC inhibition % +DTT 10 µM (SARS‐CoV‐2 Nsp15 [2]; [5]): 56,68%; PS Inhibition % 10 µM (SARS‐CoV‐2 Nsp15 [2]; [6]): 70,85%; PS inhibition % 10 μM (single point measurement) (SARS‐CoV‐2 Nsp15 [2]; [7]): 70.9%
COc1cc2c(cc1OC)CN(CCc1ccc(NC(=O)c3cccc4c(=O)c5cccc(OC)c5[nH]c34)cc1)CC2 [Elacridar]	4.9 µM	4.99 µM	15.9%	72.7%	68.3%	68.3%	–	–	loss of the inhibition potency in L‐cysteine buffer (SARS‐CoV‐2 Nsp15 [1]): more than 50%
COc1cccc2c1C(=O)c1c(O)c3c(c(O)c1C2=O)C[C@@](O)(C(=O)CO)C[C@@H]3O[C@H]1C[C@H](N)[C@@H](O)[C@H](C)O1 [Epirubicin hydrochloride]	–	–	–	–	–	–	–	–	IC50 (SARS‐CoV‐2 Nsp15 [1]; IC50 + L‐Cys (μM) (CI in μM)): 1.5 µM; IC50 (SARS‐CoV‐2 Nsp15 [1]; IC50 +L-Cys (µM)): 1.46 µM; IC50 (SARS‐CoV‐2 Nsp15 [2]; IC50 + DTT (μM) (CI in μM)): 3.4 µM; IC50 (SARS‐CoV‐2 Nsp15 [2]; IC50 +DTT (µM)): 3.37 µM
CCOC(=O)CCNc1cc(N2CCc3ccccc3CC2)nc(-c2ccccn2)n1 [GSK J4 HCl]	5.5 µM	5.48 µM	77.9%	82.2%	75.8%	75.8%	3.8 µM	3.81 µM	–
Oc1ccc2ccccc2c1SSc1c(O)ccc2ccccc12 [IPA‐3]	–	–	–	–	–	–	–	–	Inhibition % +L-Cys 10 µM (SARS‐CoV‐2 Nsp15 [1]): 51,34%; HC inhibition % +DTT 10 µM (SARS‐CoV‐2 Nsp15 [2]): 89,23%; PS Inhibition % 10 µM (SARS‐CoV‐2 Nsp15 [2]): 86,58%; PS inhibition % 10 μM (single point measurement) (SARS‐CoV‐2 Nsp15 [2]): 86.6%; IC50 (SARS‐CoV‐2 Nsp15 [2]; read-out: IC50 + DTT (μM) (CI in μM)): 0.9 µM; IC50 (SARS‐CoV‐2 Nsp15 [2]; read-out: IC50 +DTT): 0.99 µM
O=C1c2c(O)ccc(O)c2C(=O)c2c(NCCNCCO)ccc(NCCNCCO)c21 [Mitoxantrone hydrochloride]	–	–	–	–	–	–	–	–	IC50 (SARS‐CoV‐2 Nsp15 [1]; IC50 + L‐Cys (μM) (CI in μM)): 0.5 µM; IC50 (SARS‐CoV‐2 Nsp15 [1]; IC50 +L-Cys (µM)): 0.47 µM; IC50 (SARS‐CoV‐2 Nsp15 [2]; IC50 + DTT (μM) (CI in μM)): 1.5 µM; IC50 (SARS‐CoV‐2 Nsp15 [2]; IC50 +DTT (µM)): 1.47 µM
O=C1C(Cl)=C(NCCN2CCOCC2)C(=O)c2ncccc21 [NSC‐663284]	0.5 µM	0.48 µM	–	–	–	–	–	–	Inhibition % +L-Cys 10 µM (SARS‐CoV‐2 Nsp15 [1]; 10 µM, L-cysteine buffer): 53,53%; HC inhibition % +DTT 10 µM (SARS‐CoV‐2 Nsp15 [2]; [5]): 82,57%; PS Inhibition % 10 µM (SARS‐CoV‐2 Nsp15 [2]; [6]): 85,51%; PS inhibition % 10 μM (single point measurement) (SARS‐CoV‐2 Nsp15 [2]; [7]): 85.5%
COc1cccc2c1C(=O)c1c(O)c3c(c(O)c1C2=O)C[C@@](O)(C(=O)CO)C[C@@H]3O[C@H]1C[C@H](N2CCO[C@H](OC)C2)[C@H](O)[C@H](C)O1 [Nemorubicin]	2.6 µM	2.61 µM	69%	69.2%	65.2%	65.2%	1.3 µM	–	–
CCCCCCCCN=c1ccn(CCCCCCCCCCn2ccc(=NCCCCCCCC)cc2)cc1 [Octenidine dihydrochloride]	3.8 µM	3.76 µM	103%	92.4%	98.6%	98.6%	4.4 µM	4.36 µM	–
NCCNc1ccc(NCCN)c2c1C(=O)c1ccncc1C2=O [Pixantrone (dimaleate)]	5.2 µM	5.23 µM	72.8%	77.5%	82.3%	82.3%	4.4 µM	4.37 µM	–
C/C(=N\NC(=N)N)c1cc(NC(=O)CCCCCCCCC(=O)Nc2cc(/C(C)=N/NC(=N)N)cc(/C(C)=N/NC(=N)N)c2)cc(/C(C)=N/NC(=N)N)c1 [Semapimod]	0.6 µM	0.61 µM	–	–	–	–	1 µM	1.01 µM	Inhibition % +L-Cys 10 µM (SARS‐CoV‐2 Nsp15 [1]; 10 µM, L-cysteine buffer): 100,99%; HC inhibition % +DTT 10 µM (SARS‐CoV‐2 Nsp15 [2]; [5]): 99,81%; PS Inhibition % 10 µM (SARS‐CoV‐2 Nsp15 [2]; [6]): 106,91%; PS inhibition % 10 μM (single point measurement) (SARS‐CoV‐2 Nsp15 [2]; [7]): 106.9%
Cc1cc2nc3ccc(N(C)C)cc3[s+]c2cc1N [Tolonium chloride]	1.7 µM	1.65 µM	77.8%	76.5%	72%	72%	1.3 µM	1.34 µM	–
COc1cc2c(NC3CCN(C)CC3)nc(N3CCCN(C)CC3)nc2cc1OCCCN(C)C [UNC0224]	2.6 µM	2.57 µM	83.2%	73.9%	70.6%	70.6%	4 µM	–	–
COc1cc2c(NC3CCN(C)CC3)nc(N3CCCN(C)CC3)nc2cc1OCCOCCN(C)C [UNC0321]	3.9 µM	3.89 µM	72.9%	77.6%	64%	63.9%	3.2 µM	3.21 µM	–
COc1cc2c(NC3CCN(CC4CCCCC4)CC3)nc(N3CCCN(C(C)C)CC3)nc2cc1OCCCN1CCCCC1 [UNC0631]	2.2 µM	2.21 µM	79.3%	71.4%	84.8%	84.8%	2.5 µM	2.54 µM	–
